Values of other authors in paper PMC4955970, “Stable, synthetic analogs of diadenosine tetraphosphate inhibit rat and human P2X3 receptors and inflammatory pain” (Molecular Pain, 2016).

Tested on: P2X3R
Set-up: method as in PMID 11821019
Conditions: EC50 and IC50 values taken from literature ref 41; cited from earlier work

Nc1ncnc2c1ncn2[C@@H]1O[C@H](COP(=O)(O)OP(=O)(O)OP(=O)(O)O)[C@@H](O)[C@H]1O [ATP]
EC50/IC50 index: 15.13

Nc1ncnc2c1ncn2[C@@H]1O[C@H](COP(=O)(O)OP(=O)(O)OP(=O)(O)OP(=O)(O)OC[C@H]2O[C@@H](n3cnc4c(N)ncnc43)[C@H](O)[C@@H]2O)[C@@H](O)[C@H]1O [Ap4A, P^1,P^4-diadenosine tetraphosphate]
EC50/IC50 index: 11.48
